Legend:
[1] = tested on: slime in a reverse osmosis membrane; test: Test Example 4: number of days for the differential pressure to reach 100 kPa; design: species or system microorganism; details: days for differential pressure to reach 100 kPa; substrates 30 mg/L as C, 10 mg/L as N, 0.5 mg/L as P; 20° C.; no addition: 10
Description: (§1) A substrate was added to raw water, and a biofouling effect of a microorganism was accelerated. Specifically, as substrates, ethanol, ammonium chloride and sodium dihydrogen phosphate were added to raw water so that the concentrations reached 50 mg/L as C, 10 mg/L as N and 0.5 mg/L as P, respectively, thereby producing water to be treated. The pH of the raw water (water to be treated) was 6 to 8, TOC was 1 mg/L, ORP was 300 mV, and the water temperature was 25° C.
This water to be treated was pressurized to 1.5 MPa with a pump and supplied as supply water (the water amount was 100 mL/min, the water pressure was […], and the water temperature was 25° C.) to a concentrate compartment of an RO membrane device, and an RO membrane treatment was performed. As the RO membrane device, a device in which one vessel was filled with a 4-inch spiral RO membrane element of an aromatic polyamide-based RO membrane (manufactured by Nitto Denko Corporation, ES20) was used. The flow rate of the supply water was 3 to 10 m^3/h per 8-inch spiral module. A change in the differential pressure means a change in the difference of the pressure at each water-passing time after the beginning of measurement from 0 kPa that is a set pressure at the time of the beginning of the measurement.
(§2) Upon the evaluation of slime inhibition in a reverse osmosis membrane, the number of days taken for the differential pressure to increase up to 100 kPa under conditions shown in Table 1 was measured using a membrane fouling simulator that is in Non-Patent Literature 1 (J. S. Vrouwenvelder et. al.), and the day where this differential pressure was reached was regarded as a day when biofouling occurred, that is, an occlusion day. It is evaluated that, as the number of days taken until this occlusion increases, slime can be inhibited more favorable.
A test was performed under the same conditions as in <Test Example 1> except that water to be treated prepared by adding, as substrates, ethanol, ammonium chloride and sodium dihydrogen phosphate to raw water so that the concentrations reached 30 mg/L as C, 10 mg/L as N and 0.5 mg/L as P, respectively, was used, the water temperature of the water to be treated was set and adjusted to 20° C., and the addition periods and addition concentrations of the slime inhibitors were set as shown in Table 2.
The oxidation-based slime inhibitor is continuously added “for 30 minutes”, and the water to be treated containing the chemical is continuously passed through the RO membrane device downstream thereof “for 30 minutes”.
The organic-based slime inhibitor is continuously added “for 30 minutes”, and the water to be treated containing the chemical is continuously passed through the RO membrane device downstream thereof “for 30 minutes”. […]

[2] = tested on: slime in a reverse osmosis membrane; test: Test Example 1: evaluation of slime inhibition in reverse osmosis membrane (membrane fouling simulator, days to 100 kPa differential pressure); design: species or system microorganism; details: days for differential pressure to reach 100 kPa; substrates ethanol 50 mg/L as C, ammonium chloride 10 mg/L as N, sodium dihydrogen phosphate 0.5 mg/L as P; 25° C.; no chemical added: 8
Description: as §1
This water to be treated was pressurized to 1.5 MPa with a pump and supplied as supply water (the water amount was 100 mL/min, the water pressure was 0.2 MPa, and the water temperature was 25° C.) to a concentrate compartment of an RO membrane device, and an RO membrane treatment was performed. […]
as §2

Row | SMILES | Number of days until occlusion [1] [days] | Number of days until occlusion [2] [days]
1 | Cn1sc(Cl)cc1=O [4-4, 5-chloro-2-methyl-4-isothiazolin-3-one] | 32 | –
2 | O=S(=O)([O-])NCl.[Na+] [4-2, Sodium monochlorosulfamate] | 12 | –
3 | O=S(=O)([O-])NCl.[Na+] [Comparative Example 1-2, Sodium monochlorosulfamate] | – | 12
4 | Cn1sc(Cl)cc1=O [4-5, 5-chloro-2-methyl-4-isothiazolin-3-one] | 18 | –
5 | Cn1sc(Cl)cc1=O [1-3, 5-chloro-2-methyl-4-isothiazolin-3-one] | – | 15
6 | O=S(=O)([O-])NCl.[Na+] [4-3, Sodium monochlorosulfamate] | 30 | –

Reference: patent publication US12655041B2, “Method for operating reverse osmosis membrane device, a slime control method, and a water treatment device” (priority 2021, dated 2026)
